Drawing on patent US8822449B2, “Substituted aminoindanes and analogs thereof, and the pharmaceutical use thereof” (Sanofi, priority 2008, dated 2014), this text covers IC50 and inhibition for 29 compounds.

The experiment addresses T1, sodium-proton exchanger of subtype 3 (NHE3) (Homo sapiens, UniProt P48764).
T1 construct: expressed in transfected cells
T1 sequence (P48764 26-834): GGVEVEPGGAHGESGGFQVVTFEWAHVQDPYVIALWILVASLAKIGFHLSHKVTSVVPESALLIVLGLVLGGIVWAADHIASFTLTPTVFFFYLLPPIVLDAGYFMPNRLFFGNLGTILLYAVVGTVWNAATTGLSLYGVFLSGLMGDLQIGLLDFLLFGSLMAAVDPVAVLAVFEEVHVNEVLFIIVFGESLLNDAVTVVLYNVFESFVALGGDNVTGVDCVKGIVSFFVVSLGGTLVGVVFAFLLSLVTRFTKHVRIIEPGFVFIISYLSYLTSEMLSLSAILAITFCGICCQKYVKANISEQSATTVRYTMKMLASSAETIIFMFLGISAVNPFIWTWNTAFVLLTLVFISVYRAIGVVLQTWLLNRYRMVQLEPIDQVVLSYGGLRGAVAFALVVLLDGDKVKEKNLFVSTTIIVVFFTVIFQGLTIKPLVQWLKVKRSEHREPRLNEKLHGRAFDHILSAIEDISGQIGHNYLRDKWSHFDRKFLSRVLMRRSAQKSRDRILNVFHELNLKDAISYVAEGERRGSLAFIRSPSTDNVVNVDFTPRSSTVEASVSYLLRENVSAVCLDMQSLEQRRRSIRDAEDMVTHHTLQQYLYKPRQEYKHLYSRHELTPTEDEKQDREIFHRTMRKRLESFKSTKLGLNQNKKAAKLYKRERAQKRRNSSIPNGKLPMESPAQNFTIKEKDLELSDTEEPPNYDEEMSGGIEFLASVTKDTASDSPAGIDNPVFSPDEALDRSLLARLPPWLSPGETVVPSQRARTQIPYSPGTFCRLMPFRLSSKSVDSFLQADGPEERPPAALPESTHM
Put plainly: Recovery of intracellular pH (pHi) after acidification in LAP1 cells stably expressing NHE3 (BCECF fluorescence, FLIPR). It is filed as cell-based. Conditions: LAP1 cells stably expressing NHE3; pH recovery after acidification; range 1 is % inhibition at 10 μM; read-out: Activity range (inhibitory effect on NHE3).

Experimental: In this assay, the recovery of the intracellular pH (pHi) of LAP1 cells which stably express the sodium-proton exchanger of subtype 3 (NHE3) after acidification was determined. The recovery occurs even under bicarbonate-free conditions with functional NHE3. To this end, the pHi was determined using the pH-sensitive fluorescent dye BCECF (Molecular Probes, Eugene, Oreg., USA, employing the precursors BCECF-AM). The cells were initially incubated with BCECF (5 μM BCECF-AM) in NH4Cl buffer (NH4Cl buffer: 115 mM cholineCl, 20 mM NH4Cl, 5 mM KCl, 1 mM CaCl2, 1 mM MgCl2, 20 mM Hepes, 5 mM glucose, a pH of 7.4 was adjusted with 1 M KOH). The intracellular acidification was induced by washing the cells incubated in NH4Cl buffer with NH4Cl-free buffer (133.8 mM choline chloride, 4.7 mM KCl, 1.25 mM CaCl2, 1.25 mM MgCl2, 0.97 mM K2HPO4, 0.23 mM KH2PO4, 5 mM Hepes, 5 mM glucose, a pH of 7.4 was adjusted with 1 M KOH). After the washing step, 90 μl of the NH4Cl-free buffer were left on the cells. The pH recovery was started by adding 90 μl of Na^+-containing buffer (133.8 mM NaCl, 4.7 mM KCl, 1.25 mM CaCl2, 1.25 mM MgCl2, 0.97 mM Na2HPO4, 0.23 mM NaH2PO4, 10 mM Hepes, 5 mM glucose, a pH of 7.4 was adjusted with 1 M NaOH) in a measuring instrument (FLIPR, “Fluorometric Imaging Plate Reader”, Molecular Devices, Sunnyvale, Calif., USA). The BCECF fluorescence was determined with an excitation wavelength of 498 nm and the FLIPR emission filter 1 (bandpass from 510 to 570 nm). The subsequent changes in fluorescence as a measure of pH recovery were recorded for two minutes. To calculate the NHE3-inhibitory power of the tested substances, the cells were initially investigated in buffers with which complete or absolutely no pH recovery took place. For complete pH recovery (100%), the cells were incubated in Na^+-containing buffer (see above), and to determine the 0% value were incubated in Na^+-free buffer (see above). The substances to be tested were made up in Na^+-containing buffer. The recovery of the intracellular pH at each tested concentration of a substance was expressed as percent of the maximum recovery.
The IC50 of the respective substance for NHE3 was calculated from the percentages of pH recovery using the program XLFit (idbs, Surrey, UK).

Turning to `CS(=O)(=O)c1ccccc1O[C@H]1c2cc(Cl)cc(Cl)c2C[C@@H]1N1CCNCC1` [Example 246, 1-[(1S,2S)-4,6-dichloro-1-(2-methanesulfonylphenoxy)indan-2-yl]piperazine], the IC50 fell in the range of 1000 to 10000 nM.

`N#Cc1ccc(O[C@H]2c3ccccc3CC[C@@H]2N2CCC[C@H](N)C2)c(F)c1` (racemic) [Example 533, 4-[rac-trans-(1,2)-2-((S)-3-aminopiperidin-1-yl)-1,2,3,4-tetrahydronaphthalen-1-yloxy]-3-fluorobenzonitrile]: the IC50 was less than 1000 nM.

For `C[C@]1(O)CCN([C@H]2Cc3c(Cl)cc(Cl)cc3[C@@H]2Oc2ccc(S(C)(=O)=O)cc2)C1` (racemic) [Example 146, (S)-1-[(1S,2S)-4,6-dichloro-1-(4-methanesulfonylphenoxy)indan-2-yl]-3-methylpyrrolidin-3-ol], the IC50 lay within 1000 to 10000 nM.

As to `Fc1ccc(O[C@H]2c3ccccc3C[C@@H]2N2CCCC2)c(-c2ccn[nH]2)c1` [Example 575, 5-[5-fluoro-2-(trans-(1S,2S)-2-pyrrolidin-1-ylindan-1-yloxy)phenyl]-1H-pyrazole], the inhibition at 10 µM lay in the range of 20 to 50%.

In the case of `C[C@@H]1CN([C@H]2Cc3c(Cl)cc(Cl)cc3[C@@H]2Oc2ccc(S(C)(=O)=O)cc2)CCN1` [Example 101, (R)-1-[trans-(1S,2S)-4,6-dichloro-1-(4-methanesulfonylphenoxy)indan-2-yl]-3-methylpiperazine], the IC50 was less than 1000 nM.

With `CC1(C)NC(=O)N(c2ccc(F)c(O[C@H]3c4cc(Cl)cc(Cl)c4C[C@@H]3N3CC[C@@H](O)C3)c2)C1=O` [Example 416, 3-{3-[(1S,2S)-4,6-dichloro-2-((R)-3-hydroxypyrrolidin-1-yl)indan-1-yloxy]-4-fluorophenyl}-5,5-dimethylimidazolidine-2,4-dione], the IC50 fell in the range of 1000 to 10000 nM.

In the case of `CC(=O)Nc1cccc(O[C@H]2c3ccccc3C[C@@H]2N2CCC[C@@H](NCCF)C2)c1` [Example 631, N-(3-{trans-(1S,2S)-2-[(R)-3-(2-fluoroethylamino)piperidin-1-yl]indan-1-yloxy}phenyl)-acetamide], the IC50 was less than 1000 nM.

Regarding `CS(=O)(=O)c1ccc(O[C@H]2c3cc(Cl)cc(F)c3C[C@@H]2N2CC[C@@H](O)C2)c(Cl)c1` [Example 106, (R)-1-[trans-(1S,2S)-6-chloro-1-(2-chloro-4-methanesulfonylphenoxy)-4-fluoroindan-2-yl]pyrrolidin-3-ol], the IC50 is less than 1000 nM.

Turning to `NC(=O)c1cccc(O[C@@H]2c3ccccc3C[C@H]2N2CCC(N)C2)c1` (mixture of isomers) [Example 415, 3-[rac-trans-(1,2)-2-(3-aminopyrrolidin-1-yl)indan-1-yloxy]benzamide], the IC50 was in the range of 1000 to 10000 nM.

`N[C@H]1CCCN([C@H]2CCc3ccccc3[C@@H]2Oc2ccccc2OC(F)(F)F)C1` (racemic) [Example 159, (S)-1-[rac-trans-(1,2)-1-(2-trifluoromethoxyphenoxy)-1,2,3,4-tetrahydronaphthalen-2-yl]piperidin-3-ylamine]: the inhibition at 10 µM lay within 20 to 50%.

For `Cc1nnc(C)n1-c1ccc(O[C@H]2c3cc(Cl)cc(Cl)c3C[C@@H]2N2CCS(=O)(=O)CC2)c(F)c1` [Example 565, 4-{trans-(1S,2S)-4,6-dichloro-1-[4-(3,5-dimethyl-[1,2,4]triazol-4-yl)-2-fluorophenoxy]indan-2-yl}thiomorpholine 1,1-dioxide], the IC50 was less than 1000 nM.

Turning to `CS(=O)(=O)c1nccn1-c1ccc(O[C@H]2c3cc(Cl)cc(Cl)c3C[C@@H]2N2CC[C@@H](O)C2)cc1` [Example 731, (R)-1-{trans-(1S,2S)-4,6-Dichloro-1-[4-(2-methanesulfonyl-imidazol-1-yl)-phenoxy]-indan-2-yl}-pyrrolidin-3-ol], the IC50 is less than 1000 nM.

Take `CC(=O)Nc1cccc(O[C@@H]2c3cc(Cl)cc(F)c3C[C@H]2N2CCCC2)c1` (racemic) [Example 660, N-[3-(rac-trans-(1,2)-6-chloro-4-fluoro-2-pyrrolidin-1-ylindan-1-yloxy)phenyl]acetamide]: the IC50 is 1000 to 10000 nM.

With `NC1CCN([C@@H]2Cc3ccccc3[C@H]2Oc2ccc(S(N)(=O)=O)c(Cl)c2Cl)C1` (mixture of isomers) [Example 542, 4-[rac-trans-(1,2)-2-(3-aminopyrrolidin-1-yl)indan-1-yloxy]-2,3-dichlorobenzenesulfonamide], the IC50 is less than 1000 nM.

Turning to `Cc1cc(O[C@H]2c3ccccc3CC[C@@H]2N2CCC[C@@H](N)C2)ccc1Cl` (racemic) [Example 65, (R)-1-[rac-trans-(1,2)-1-(4-chloro-3-methylphenoxy)-1,2,3,4-tetrahydronaphthalen-2-yl]piperidin-3-ylamine], the inhibition at 10 µM was 20 to 50%.

`N[C@H]1CCCN([C@H]2CCc3ccccc3[C@@H]2Oc2ccc(F)cc2F)C1` (racemic) [Example 149, (S)-1-[rac-trans-(1,2)-1-(2,4-difluorophenoxy)-1,2,3,4-tetrahydronaphthalen-2-yl]piperidin-3-ylamine]: the inhibition at 10 µM fell in the range of 20 to 50%.

With `Fc1ccc(O[C@H]2c3cc(Cl)cc(Cl)c3C[C@@H]2N2CCNCC2)c2ncccc12` [Example 592, 8-((1S,2S)-4,6-dichloro-2-piperazin-1-ylindan-1-yloxy)-5-fluoroquinoline], the inhibition at 10 µM is 20 to 50%.

As for `N#Cc1cc(Cl)ccc1O[C@@H]1c2ccccc2C[C@H]1N1CCC(N)C1` (mixture of isomers) [Example 375, 2-[rac-trans-(1,2)-2-(3-aminopyrrolidin-1-yl)indan-1-yloxy]-5-chlorobenzonitrile], the IC50 lay in the range of 1000 to 10000 nM.

`O=C1CCC(=O)N1c1ccc(O[C@H]2c3cc(Cl)cc(Cl)c3C[C@@H]2N2CC[C@@H](O)C2)cc1` [Example 334, 1-{4-[trans-(1S,2S)-4,6-dichloro-2-((R)-3-hydroxypyrrolidin-1-yl)indan-1-yloxy]phenyl}pyrrolidine-2,5-dione]: the IC50 is less than 1000 nM.

In the case of `CN(C)C[C@@H]1Cc2ccccc2[C@H]1Oc1ccc(S(C)(=O)=O)cc1` (racemic) [Example 244], the inhibition at 10 µM fell in the range of 20 to 50%.

Consider `CC(=O)Nc1cccc(O[C@@H]2c3cc(Cl)cc(F)c3C[C@H]2N2CCC[C@@H](N)C2)c1` (racemic) [Example 678, N-{3-[rac-trans-(1,2)-2-((R)-3-aminopiperidin-1-yl)-6-chloro-4-fluoroindan-1-yloxy]phenyl}acetamide], for which the IC50 is less than 1000 nM.

On to `NS(=O)(=O)c1ccc(O[C@H]2c3cc(Cl)cc(Cl)c3C[C@@H]2N2CCS(=O)(=O)CC2)cc1` [Example 483, 4-[(1S,2S)-4,6-dichloro-2-(1,1-dioxo-1lambda6-thiomorpholin-4-yl)indan-1-yloxy]benzenesulfonamide], for which the IC50 was less than 1000 nM.

Turning to `CS(=O)(=O)c1ccc(O[C@H]2c3cc(Cl)cc(Cl)c3C[C@@H]2N2CCCNCC2)cc1` [Example 298, 1-[trans-(1S,2S)-4,6-dichloro-1-(4-methanesulfonylphenoxy)indan-2-yl]-[1,4]diazepane], the IC50 is less than 1000 nM.

`N[C@H]1CCCN([C@H]2CCc3ccccc3[C@@H]2Oc2ccc(N3C(=O)CCC3=O)cc2)C1` (racemic) [Example 328, 1-{4-[rac-trans-(1,2)-2-((S)-3-aminopiperidin-1-yl)-1,2,3,4-tetrahydronaphthalen-1-yloxy]phenyl}pyrrolidine-2,5-dione]: the inhibition at 10 µM was 20 to 50%.

On to `Cc1nnc(C)n1-c1ccc(O[C@H]2c3ccccc3C[C@@H]2N2CCCC2)c(Cl)c1` (racemic) [Example 490, 4-[3-chloro-4-(rac-trans-(1,2)-2-pyrrolidin-1-ylindan-1-yloxy)phenyl]-3,5-dimethyl-4H-[1,2,4]triazole], for which the IC50 was less than 1000 nM.

Turning to `N[C@H]1CCCN([C@@H]2Cc3ccccc3[C@H]2Oc2ccc(N3CCNCC3)cc2)C1` (racemic) [Example 185, (S)-1-[rac-trans-(1,2)-1-(4-piperazin-1-ylphenoxy)indan-2-yl]piperidin-3-ylamine], the IC50 is 1000 to 10000 nM.

On to `N[C@@H]1CCCN([C@@H]2Cc3ccccc3[C@H]2Oc2ccc(Cl)nc2)C1` (racemic) [Example 82, (R)-1-[rac-trans-(1,2)-1-(6-chloropyridin-3-yloxy)indan-2-yl]piperidin-3-ylamine], for which the IC50 fell in the range of 1000 to 10000 nM.

On to `O=C1CCC(=O)N1c1ccc(Cl)c(O[C@H]2c3cc(Cl)cc(Cl)c3C[C@@H]2N2CC[C@@H](O)C2)c1` [Example 337, 1-{4-chloro-3-[(1S,2S)-4,6-dichloro-2-((R)-3-hydroxypyrrolidin-1-yl)indan-1-yloxy]phenyl}pyrrolidine-2,5-dione], for which the IC50 was 1000 to 10000 nM.

Take `N#Cc1ccc(O[C@H]2c3ccccc3CC[C@@H]2N2CCC[C@H](N)C2)c([N+](=O)[O-])c1` (racemic) [Example 534, 4-[rac-trans-(1,2)-2-((S)-3-aminopiperidin-1-yl)-1,2,3,4-tetrahydronaphthalen-1-yloxy]-3-nitrobenzonitrile]: the inhibition at 10 µM was in the range of 20 to 50%.
